# How the values were obtained:
# Assay type in all cases: functional, Homo sapiens
# NHDF [1] = assay: Antiaging activity in NHDF assessed as D-[6-H3]-glucosamine incorporation into glycosaminoglycan fraction at 2 mM after 72 hrs relative to control
# NHDF [2] = assay: Antiaging activity in NHDF assessed as D-[6-H3]-glucosamine incorporation into glycosaminoglycan fraction at 0.4 mM after 72 hrs relative to control
# NHDF [3] = assay: Antiaging activity in NHDF assessed as D-[6-H3]-glucosamine incorporation into glycosaminoglycan fraction at 10 mM after 72 hrs relative to control
# NHDF [4] = assay: Antiaging activity in NHDF assessed as D-[6-H3]-glucosamine incorporation into glycosaminoglycan fraction at 3 mM after 72 hrs relative to control
# NHDF [5] = assay: Antiaging activity in NHDF assessed as D-[6-H3]-glucosamine incorporation into glycosaminoglycan fraction at 1 mM after 72 hrs relative to control
# NHDF [6] = assay: Antiaging activity in NHDF assessed as D-[6-H3]-glucosamine incorporation into glycosaminoglycan fraction at 0.3 mM after 72 hrs relative to control
# NHDF [7] = assay: Antiaging activity in NHDF assessed as D-[6-H3]-glucosamine incorporation into glycosaminoglycan fraction at 0.1 mM after 72 hrs relative to control
# NHDF [8] = assay: Antiaging activity in NHDF assessed as D-[6-H3]-glucosamine incorporation into glycosaminoglycan fraction at 0.08 mM after 72 hrs relative to control
# NHDF [9] = assay: Antiaging activity in NHDF assessed as D-[6-H3]-glucosamine incorporation into glycosaminoglycan fraction at 0.5 mM after 72 hrs relative to control
# NHDF [10] = assay: Antiaging activity in NHDF assessed as D-[6-H3]-glucosamine incorporation into glycosaminoglycan fraction at 0.02 mM after 72 hrs relative to control
compound,measurement,setting,value
CC(=O)C[C@@H]1OC[C@@H](O)[C@H](O)[C@H]1O,Activity,NHDF [1],141%
same,Activity,NHDF [2],110%
same,Activity,NHDF [3],161%
CC(=O)C[C@@H]1O[C@H](CO)[C@H](O)[C@H](O)[C@H]1O,Activity,NHDF [3],99%
same,Activity,NHDF [4],119%
same,Activity,NHDF [5],136%
CC(O)C[C@@H]1OC[C@@H](O)[C@H](O)[C@H]1O (stereo partly drawn),Activity,NHDF [4],218%
same,Activity,NHDF [5],169%
same,Activity,NHDF [6],139%
O=C(C[C@@H]1OC[C@@H](O)[C@H](O)[C@H]1O)c1ccccc1,Activity,NHDF [7],120%
same,Activity,NHDF [5],95%
same,Activity,NHDF [6],102%
O[C@@H]1[C@H](O)[C@@H](O)OC[C@H]1O [LYXOSE],Activity,NHDF [1],86%
same,Activity,NHDF [2],102%
same,Activity,NHDF [8],90%
O=C[C@H](O)[C@@H](O)[C@H](O)CO [XYLOSE],Activity,NHDF [9],52%
same,Activity,NHDF [7],85%
same,Activity,NHDF [10],106%

# From ChEMBL document CHEMBL1143372, “Synthesis of Pro-Xylane: a new biologically active C-glycoside in aqueous media” (2009)
